From ChEMBL document CHEMBL4819078, “Bioactive Dimeric Tetrahydroxanthones with 2,2'- and 4,4'-Axial Linkages from the Entomopathogenic Fungus Aschersonia confluens” (J Nat Prod, 2021)
Values after ≈ are worked out from the molar mass of the structure shown. Active and inactive are the calls of the source. No cut-off for these calls is given here.

Legend:
Enterococcus faecium = assay: Antibacterial activity against Enterococcus faecium ATCC 51559 by CLSI based microplate assay; type: functional
Plasmodium falciparum = assay: Antimalarial activity against multi drug-resistant Plasmodium falciparum K1 infected in human erythrocytes assessed as inhibition of [G-3H]hypoxanthine uptake preincubated for 24 hrs followed by [G-3H]hypoxanthine addition and measured after 18 hrs by scintillation counting method; type: functional, organism-based
[1] = test system: Mycobacterium tuberculosis; assay: Antitubercular activity against Mycobacterium tuberculosis H37Ra ATCC 25177 assessed as reduction in bacterial growth after 6 to 8 days by green fluorescent protein microplate assay; type: functional; conditions: time 6-8 day
Bacillus cereus = assay: Antibacterial activity against Bacillus cereus ATCC 11778 by resazurin microplate assay; type: functional
Candida albicans = assay: Antifungal activity against Candida albicans ATCC 90028 by resazurin microplate assay; type: functional
Vero = assay: Cytotoxicity against African green monkey Vero cells by green fluorescent protein microplate assay; type: cell-based; conditions: Chlorocebus sabaeus
MCF7 = assay: cells; conditions: Homo sapiens
Description: Cytotoxicity against human MCF7 cells assessed as reduction in cell viability by resazurin based fluorescence assay

Escherichia coli = assay: Antibacterial activity against Escherichia coli ATCC 25922 by CLSI based microplate assay; type: functional
NCI-H187 = assay: cells; conditions: Homo sapiens
Description: Cytotoxicity against human NCI-H187 cells assessed as reduction in cell viability by resazurin based fluorescence assay

Pseudomonas aeruginosa = assay: Antibacterial activity against Pseudomonas aeruginosa ATCC 15692 by CLSI based microplate assay; type: functional
Acinetobacter baumannii = assay: Antibacterial activity against Acinetobacter baumannii ATCC 19606 by CLSI based microplate assay; type: functional; conditions: ATCC 19606 = CIP 70.34 = JCM 6841
KB = assay: cells; conditions: Homo sapiens
Description: Cytotoxicity against human KB cells assessed as reduction in cell viability by resazurin based fluorescence assay

Klebsiella pneumoniae = assay: Antibacterial activity against Klebsiella pneumoniae ATCC 700603 by CLSI based microplate assay; type: functional

Compound	MIC (Enterococcus faecium) [µg/mL]	IC50 (Plasmodium falciparum) [nM]	MIC [1] [µg/mL]	Activity (Bacillus cereus)	Activity (Candida albicans)	IC50 (Vero) [nM]	IC50 (MCF7) [nM]	Activity (Escherichia coli)	IC50 (NCI-H187) [nM]	Activity (Pseudomonas aeruginosa)	Activity (Acinetobacter baumannii)	IC50 (KB) [nM]	Activity (Klebsiella pneumoniae)	also measured
CO[C@H]1[C@H](O)C=C2C(=O)c3c(cc(C)c(-c4c(C)cc5c(c4O)C(=O)C4=CC[C@H](OC)[C@@H](O)[C@]4(C)O5)c3O)O[C@@]2(C)[C@@H]1O	> 50	600	6.3 (≈ 10.6 µM)	inactive	inactive	1200	12800	inactive	1000	inactive	inactive	1300	inactive	
O=C(N[C@H](CO)[C@H](O)c1ccc([N+](=O)[O-])cc1)C(Cl)Cl [CHLORAMPHENICOL]														MIC (Pseudomonas aeruginosa): 8 µg/mL (≈ 24.8 µM)
COC1=C[C@]2(C)Oc3c(c(O)cc(C)c3-c3c(C)cc(O)c4c3O[C@]3(C)C(=CC[C@H](OC)[C@H]3O)C4=O)C(=O)[C@@H]2CC1=O	> 50	4800	12.5 (≈ 21.7 µM)	inactive	inactive	6100	17600	inactive	3500	inactive	inactive	9700	inactive	
CN[C@H](CC(C)C)C(=O)N[C@H]1C(=O)N[C@@H](CC(N)=O)C(=O)N[C@H]2C(=O)N[C@H]3C(=O)N[C@H](C(=O)N[C@H](C(=O)O)c4cc(O)cc(O)c4-c4cc3ccc4O)[C@H](O)c3ccc(c(Cl)c3)Oc3cc2cc(c3O[C@@H]2O[C@H](CO)[C@@H](O)[C@H](O)[C@H]2O[C@H]2C[C@](C)(N)[C@H](O)[C@H](C)O2)Oc2ccc(cc2Cl)[C@H]1O [VANCOMYCIN]														MIC (Bacillus cereus): 2 µg/mL (≈ 1.38 µM)
CO[C@H]1CC=C2C(=O)c3c(O)cc(C)c(-c4c(C)cc(O)c5c4O[C@]4(C)C(=CC[C@H](OC)[C@@H]4O)C5=O)c3O[C@@]2(C)[C@@H]1O	> 50	2600	6.3 (≈ 10.9 µM)	inactive	inactive	4200	27900	inactive	2800	inactive	inactive	4700	inactive	
CN[C@@H]1[C@H](O[C@H]2[C@H](O[C@H]3[C@H](O)[C@@H](O)[C@H](N=C(N)N)[C@@H](O)[C@@H]3N=C(N)N)O[C@@H](C)[C@]2(O)C=O)O[C@@H](CO)[C@H](O)[C@H]1O [STREPTOMYCIN]			0.3 (≈ 0.516 µM)											
CO[C@H]1CC=C2C(=O)c3c(O)cc(C)c(-c4c(C)cc(O)c5c4O[C@]4(C)C(=CC[C@H](OC)[C@H]4O)C5=O)c3O[C@@]2(C)[C@@H]1O	> 50	900	6.3 (≈ 10.9 µM)	inactive	inactive	1100	7500	inactive	800	inactive	inactive	1500	inactive	
CC[C@@H](CO)NCCN[C@@H](CC)CO [ETHAMBUTOL]			0.9 (≈ 4.4 µM)											
CO[C@H]1CC=C2C(=O)c3c(cc(C)c(-c4c(C)cc5c(c4O)C(=O)C4=CC[C@H](OC)[C@H](OC(C)=O)[C@]4(C)O5)c3O)O[C@@]2(C)[C@@H]1O	12.5 (≈ 20.1 µM)	1400	6.3 (≈ 10.2 µM)	inactive	inactive	900	7200	inactive	1000	inactive	inactive	1500	inactive	
Cc1c2ccncc2c(C)c2c1[nH]c1ccccc12 [ELLIPTECINE]						7900			9100			6100		
NNC(=O)c1ccncc1 [ISONIAZID]			0.1 (≈ 0.729 µM)											
CC[C@H]1OC(=O)[C@H](C)[C@@H](O[C@H]2C[C@@](C)(OC)[C@@H](O)[C@H](C)O2)[C@H](C)[C@@H](O[C@@H]2O[C@H](C)C[C@H](N(C)C)[C@H]2O)[C@](C)(O)C[C@@H](C)C(=O)[C@H](C)[C@@H](O)[C@]1(C)O [ERYTHROMYCIN]														MIC (Escherichia coli): 25 µg/mL (≈ 34.1 µM); MIC (Pseudomonas aeruginosa): 32 µg/mL (≈ 43.6 µM); MIC (Acinetobacter baumannii): 12.5 µg/mL (≈ 17 µM); MIC (Klebsiella pneumoniae): 200 µg/mL (≈ 273 µM)
CC/C(=C(\c1ccccc1)c1ccc(OCCN(C)C)cc1)c1ccccc1 [TAMOXIFEN]							19200							
CO[C@H]1CC=C2C(=O)c3c(cc(C)c(-c4c(C)cc5c(c4O)C(=O)C4=CC[C@H](OC)[C@H](O)[C@]4(C)O5)c3O)O[C@@]2(C)[C@@H]1O	12.5 (≈ 21.6 µM)	1000	25 (≈ 43.2 µM)	inactive	inactive	2400	> 86400	inactive	1200	inactive	inactive	3400	inactive	
CO[C@H]1[C@H](O)C=C2C(=O)c3c(O)cc(C)c(-c4c(C)cc(O)c5c4O[C@]4(C)C(=CC[C@H](OC)[C@H]4O)C5=O)c3O[C@@]2(C)[C@@H]1O	> 50	1700	25 (≈ 42 µM)	inactive	inactive	2200	63200	inactive	1000	inactive	inactive	63500	inactive	
CO[C@H]1CC=C2C(=O)c3c(cc(C)c(-c4c(C)cc5c(c4O)C(=O)C4=CC[C@H](OC)[C@@H](O)[C@]4(C)O5)c3O)O[C@@]2(C)[C@@H]1O [ASCHERXANTHONE A]	> 50	1000	6.3 (≈ 10.9 µM)	inactive	inactive	900	16800	inactive	500	inactive	inactive	3200	inactive	
CC1COc2c(N3CCN(C)CC3)c(F)cc3c(=O)c(C(=O)O)cn1c23 (configuration not stated) [OFLOXACIN]			0.4 (≈ 1.11 µM)											
CO[C@H]1CC=C2C(=O)c3c(O)cc(C)c(-c4c(C)cc(O)c5c4O[C@]4(C)C(=CC(=O)[C@H](OC)[C@H]4O)C5=O)c3O[C@@]2(C)[C@@H]1O	> 50	6100	12.5 (≈ 21.1 µM)	inactive	inactive	4200	25500	inactive	1700	inactive	inactive	4900	inactive	
O[C@@H](c1cc(C(F)(F)F)nc2c(C(F)(F)F)cccc12)[C@H]1CCCCN1 [(S,R)-MEFLOQUINE]		70												
C[C@@H]1[C@H](O)[C@@H](C)/C=C/C=C/C=C/C=C/C=C/C=C/C=C/[C@H](O[C@@H]2O[C@H](C)[C@@H](O)[C@H](N)[C@@H]2O)C[C@@H]2O[C@](O)(C[C@@H](O)C[C@@H](O)[C@H](O)CC[C@@H](O)C[C@@H](O)CC(=O)O[C@H]1C)C[C@H](O)[C@H]2C(=O)O [AMPHOTERICIN B]														MIC (Candida albicans): 0.1 µg/mL (≈ 0.108 µM)
CO[C@H]1/C=C/O[C@@]2(C)Oc3c(C)c(O)c4c(O)c(c(/C=N/N5CCN(C)CC5)c(O)c4c3C2=O)NC(=O)/C(C)=C\C=C\[C@H](C)[C@H](O)[C@@H](C)[C@@H](O)[C@@H](C)[C@H](OC(C)=O)[C@@H]1C [RIFAMPIN]	3.1 (≈ 3.77 µM)													MIC (Escherichia coli): 6.3 µg/mL (≈ 7.66 µM); MIC (Acinetobacter baumannii): 3.1 µg/mL (≈ 3.77 µM); MIC (Klebsiella pneumoniae): 25 µg/mL (≈ 30.4 µM)
